Experimental data taken from US6114390A, “Amino acid derivatives, pharmaceutical compositions containing these compounds and processes for preparing them” (Karl Thomae GmbH, priority 1997, dated 2000).

Assays:
[1] = Food intake in food-deprived rats; type: in vivo, rat; conditions: 15 μg, bilaterally, PVN
Method: Food-deprivation experiments were conducted with male Chbb:Thom rats weighing between 300 and 350 g. The animals were individually housed for the duration of the study and allowed free access to normal food together with tap water. Food was removed from the animals for 24 hours starting at 8:00 a.m. At the end of the fasting period compound or vehicle was administered to the animals by infusion into the PVN. Food was returned to the animals and their food intake monitored at various time periods during the following 24 hour period. The food intake of animals treated with test compound was calculated as a percentage of the food intake of control animals (i.e., animals treated with vehicle).

NPY induced food intake = assay: Food intake in satiated rats after NPY application to the PVN; type: in vivo, rat; conditions: for % Inhibition of food intake: PVN, 2 h, 1 μg NPY
Method: For these determinations food intake was measured in normal satiated rats after application of NPY to the paraventricular nucleus (PVN) in the presence or absence of the test compound. […] The rats were individually housed in stainless steel cages where water and food were available ad libitum.
Rats under Pentobarbital anaesthesia were stereotactically implanted with a stainless steel double guide cannula targeted bilaterally at the PVNs. Stereotactic coordinates were: -1.8mm caudal, 0.5mm lateral to bregma and 7.0 mm below the skull surface. Injection cannulae extended the guide cannulae by 1 mm. Animals were allowed to recover from surgery for at least 10 days before being used in the experiments. Rats were handled and mock-injected during the […] recovery period to habituate them to the injection procedure.
Animals treated with both test compounds and NPY were treated first with the test compound. Then, 15 min. after PVN infusion of the test compound or vehicle (control) 1 μg of NPY was administered by PVN infusion.
Food intake was measured by placing preweighed pellets into the cages at the time of NPY injection. Pellets were removed from the cage at 2 h post NPY injection. The food intake of animals treated with test compound was calculated as a percentage of the food intake of control animals, i.e., animals treated with vehicle.

human Y2 receptor = target: T1, human Y2 receptor (Homo sapiens, UniProt P49146); assay: Receptor binding, BHK cells stably expressing the human Y2 receptor; conditions: read-out: Affinity IC50, humanY2/BHK
T1 construct: expressed in transfected cells; host or cells: BHK
T1 sequence (P49146 1-381): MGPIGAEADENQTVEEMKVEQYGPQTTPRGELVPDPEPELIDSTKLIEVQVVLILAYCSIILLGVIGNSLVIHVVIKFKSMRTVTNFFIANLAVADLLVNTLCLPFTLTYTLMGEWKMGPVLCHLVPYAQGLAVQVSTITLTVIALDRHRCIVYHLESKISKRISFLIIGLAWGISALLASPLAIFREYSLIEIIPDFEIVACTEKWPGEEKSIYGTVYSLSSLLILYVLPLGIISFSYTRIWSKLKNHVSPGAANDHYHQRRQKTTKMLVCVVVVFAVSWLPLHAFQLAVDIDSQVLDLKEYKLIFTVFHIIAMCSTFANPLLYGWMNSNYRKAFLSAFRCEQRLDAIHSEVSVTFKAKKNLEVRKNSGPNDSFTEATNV
Method: BHK cells stably expressing the human Y1 receptor: Cells were grown in DMEM with 4.5 g/l glucose, 10% FCS, 1% PENStrep, 1 mg/ml G-418, 1 mg/ml hygromycin B. 96h before receptor binding assay 1mM IPTG was added in order to induce expression. Confluent cells were removed with 0.06% EDTA/PBS (1 min incubation) and resuspended in 15 ml incubation buffer (MEM/25 mM HEPES +1% BSA, […], 0.1% bacitracin, 3.75 mM CaCl2). After 10 min centrifugation at RT (150×g), the pellet was resuspended in 50 ml incubation buffer, respun and resuspended in 30 ml incubation buffer. After counting, the cells were diluted to a final concentration of 2.5×10^5 cells/ml. Two hundred microliters of this cell suspension was incubated 3 h at RT with 30 pM [^125 I]NPY and increasing concentrations of test compounds in a total volume of […]. The incubation was stopped by 10 min centrifugation, 3000×g at 4° C. The pellet was resuspended with 0.25 ml PBS recentrifuged and the pellet measured in a γ-counter.
BHK cells stably expressing the human Y2 receptor: Assay was performed essentially as described for human Y1 expressing BHK cells.

human Y4 receptor = target: T2, human Y4 receptor (Homo sapiens, UniProt P50391); assay: Receptor binding, CHO cells transiently transfected with human Y4 receptor; conditions: means ± S.E.M. of 3 to 5 experiments, read-out: Affinity IC50, humanY4/CHO
T2 construct: expressed in transfected cells; host or cells: CHO
T2 sequence (P50391 whole entry): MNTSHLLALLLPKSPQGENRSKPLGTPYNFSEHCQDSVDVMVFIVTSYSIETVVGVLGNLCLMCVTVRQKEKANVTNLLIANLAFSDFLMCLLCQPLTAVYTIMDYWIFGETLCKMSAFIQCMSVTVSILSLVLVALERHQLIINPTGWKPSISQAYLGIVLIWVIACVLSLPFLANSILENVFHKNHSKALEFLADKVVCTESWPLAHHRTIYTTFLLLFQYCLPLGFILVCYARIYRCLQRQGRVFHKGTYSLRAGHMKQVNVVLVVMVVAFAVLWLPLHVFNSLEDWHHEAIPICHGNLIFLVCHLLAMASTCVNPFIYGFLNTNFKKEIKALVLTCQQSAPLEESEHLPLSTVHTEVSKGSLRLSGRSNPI
Method: CHO cells transiently transfected with human Y4 and rat Y5 receptor: Transfection was performed using the lipofectamine method according to the manufacturer's protocol (GIBCO BRL Eggenstein, Germany) using expression plasmids encoding the rat Y5 or human Y4 receptor, respectively. Receptor binding was performed as described for rat Y1 expressing HEK 293 cells.

## N=C(N)NCCC[C@@H](NC(=O)C(c1ccccc1)c1ccccc1)C(=O)NCc1ccc(CNC(N)=O)cc1 [Compound C]
[1]
  food intake in 24 hour food deprived rats (result in words): significant reduction in food intake
NPY induced food intake
  NPY induced food intake (result in words): reduced
NPY induced food intake; 15 μg
  % Inhibition of food intake: 25.9%
NPY induced food intake; 30 μg
  % Inhibition of food intake: 52.8%
NPY induced food intake; 60 μg
  % Inhibition of food intake: 69.8%
Human Y2 receptor
  IC50: > 1 µM
Human Y4 receptor
  IC50: 12.3 µM
